Experiment [1] deals with Gerbillinae. The experiment is described as follows: In vivo Effective dose against Trichostrongylus colubriformis in Trichostrongylus colubriformis assay using gerbils. Type of experiment: functional.
The next experiment relates to Caenorhabditis elegans. The experiment is described as follows: Inhibition of Caenorhabditis elegans binding evaluated using Caenorhabditis elegans motility assay. Type of experiment: functional, organism-based.
For another experiment, the system named is Artemia salina. Kind of experiment: Inhibition of Artemia salina evaluated using Arternia salina Immobilization assay. In kind it is functional.
Experiment [2] concerns Gerbillinae. The experiment is described as follows: In vivo Effective dose against Trichostrongylus colubriformis in T. colubriformis assay using Gerbils. Type of experiment: functional.
Setting [3] is: Caenorhabditis elegans, read-out: IC50.

≈ marks a conversion by molar mass, not a printed value.

One may read the IC50 as the point on the concentration scale where inhibition reaches its midpoint. In turn, `CCC(C)[C@H]1O[C@]2(C=C[C@@H]1C)C[C@@H]1C[C@@H](C/C=C(\C)[C@@H](O[C@H]3C[C@H](OC)[C@@H](O[C@H]4C[C@H](OC)[C@@](O)(CSc5ccncc5)[C@H](C)O4)[C@H](C)O3)[C@@H](C)/C=C/C=C3\CO[C@@H]4[C@H](O)C(C)=C[C@@H](C(=O)O1)[C@]34O)O2` (some centres not stated) came in with an ED85 with Gerbillinae [1] of 0.125 mg/kg. Also, the half-inhibitory concentration (IC50) in the experiment on Caenorhabditis elegans (setting [3]) came to 0.11 ng/mL (≈ 0.11 nM). In addition, the IC100 with Artemia salina turned out to be 6930 ng/mL.

With `CCC(C)[C@H]1O[C@]2(C=C[C@@H]1C)C[C@@H]1C[C@@H](C/C=C(\C)[C@@H](O[C@H]3C[C@H](OC)[C@@H](O[C@H]4C[C@H](OC)[C@@](O)(CSCC(=O)OC)[C@H](C)O4)[C@H](C)O3)[C@@H](C)/C=C/C=C3\CO[C@@H]4[C@H](O)C(C)=C[C@@H](C(=O)O1)[C@]34O)O2` (some centres not stated), the ED85 with Gerbillinae [1] came out at 0.25 mg/kg. Besides, the IC50 in the experiment on Caenorhabditis elegans (setting [3]) turned out to be 1.28 ng/mL (≈ 1.29 nM). Further, in the experiment on Artemia salina, the IC100 is 870 ng/mL.

Turning to `CCC(C)[C@H]1O[C@]2(C=C[C@@H]1C)C[C@@H]1C[C@@H](C/C=C(\C)[C@@H](O[C@H]3C[C@H](OC)[C@@H](O[C@H]4C[C@H](OC)[C@@](O)(CSC(C)=O)[C@H](C)O4)[C@H](C)O3)[C@@H](C)/C=C/C=C3\CO[C@@H]4[C@H](O)C(C)=C[C@@H](C(=O)O1)[C@]34O)O2` (some centres not stated), the ED85 in the experiment on Gerbillinae [1] was 0.125 mg/kg. Besides, in the experiment with Caenorhabditis elegans (setting [3]), the IC50 stood at 0.18 ng/mL (≈ 0.187 nM). This compound registered an IC100 in the experiment on Artemia salina of 1730 ng/mL.

Compound `CCC(C)[C@H]1O[C@]2(C=C[C@@H]1C)C[C@@H]1C[C@@H](C/C=C(\C)[C@@H](O[C@H]3C[C@H](OC)[C@@H](O[C@H]4C[C@H](OC)[C@@](O)(CNCc5ccco5)[C@H](C)O4)[C@H](C)O3)[C@@H](C)/C=C/C=C3\CO[C@@H]4[C@H](O)C(C)=C[C@@H](C(=O)O1)[C@]34O)O2` (some centres not stated) registered an ED85 in the experiment with Gerbillinae [1] of 0.063 mg/kg. In the experiment with Caenorhabditis elegans (setting [3]), the IC50 was determined as 0.1 ng/mL (≈ 0.102 nM). This compound also returned an IC100 with Artemia salina of 10415 ng/mL.

Compound `CCC(C)[C@H]1O[C@]2(C=C[C@@H]1C)C[C@@H]1C[C@@H](C/C=C(\C)[C@@H](O[C@H]3C[C@H](OC)[C@@H](O[C@H]4C[C@H](OC)C(O)(CSC(C)=O)C[C@H](C)O4)[C@H](C)O3)[C@@H](C)/C=C/C=C3\CO[C@@H]4[C@H](O)C(C)=C[C@@H](C(=O)O1)[C@]34O)O2` (some centres not stated) came in with an ED85 with Gerbillinae [2] of 0.031 mg/kg. The 50% inhibitory concentration (IC50) in the experiment on Caenorhabditis elegans (setting [3]) is 1.11 ng/mL (≈ 1.14 nM). In the experiment on Artemia salina, the IC100 turned out to be 1300 ng/mL.

Compound `CCCNCC1(O)C[C@H](C)O[C@@H](O[C@H]2[C@H](C)O[C@@H](O[C@@H]3/C(C)=C/C[C@@H]4C[C@@H](C[C@]5(C=C[C@H](C)[C@@H](C(C)CC)O5)O4)OC(=O)[C@@H]4C=C(C)[C@@H](O)[C@H]5OC/C(=C\C=C\[C@@H]3C)[C@]54O)C[C@@H]2OC)C[C@@H]1OC` (some centres not stated) yielded an ED85 with Gerbillinae [2] of 0.125 mg/kg. The IC50 in the experiment with Caenorhabditis elegans (setting [3]) was 1.39 ng/mL (≈ 1.45 nM). For the same compound, in the experiment on Artemia salina, the IC100 was found to be 27800 ng/mL.

The compound `CCCNC[C@@]1(O)[C@H](C)O[C@@H](O[C@H]2[C@H](C)O[C@@H](O[C@@H]3/C(C)=C/C[C@@H]4C[C@@H](C[C@]5(C=C[C@H](C)[C@@H](C(C)CC)O5)O4)OC(=O)[C@@H]4C=C(C)[C@@H](O)[C@H]5OC/C(=C\C=C\[C@@H]3C)[C@]54O)C[C@@H]2OC)C[C@@H]1OC` (some centres not stated) had an ED85 with Gerbillinae [1] of 0.125 mg/kg. The IC50 in the experiment on Caenorhabditis elegans (setting [3]) is 0.17 ng/mL (≈ 0.18 nM). Moreover, the IC100 in the experiment on Artemia salina came to 6930 ng/mL.

Take `CCC(C)[C@H]1O[C@]2(C=C[C@@H]1C)C[C@@H]1C[C@@H](C/C=C(\C)[C@@H](O[C@H]3C[C@H](OC)[C@@H](O[C@H]4C[C@H](OC)C(O)(CSCC(=O)OC)C[C@H](C)O4)[C@H](C)O3)[C@@H](C)/C=C/C=C3\CO[C@@H]4[C@H](O)C(C)=C[C@@H](C(=O)O1)[C@]34O)O2` (some centres not stated): the ED85 in the experiment with Gerbillinae [2] came out at 0.063 mg/kg. Also, in the experiment on Caenorhabditis elegans (setting [3]), the IC50 is 0.88 ng/mL (≈ 0.875 nM). Moreover, the IC100 in the experiment on Artemia salina is 1300 ng/mL.

In the experiment on Gerbillinae [1], `CCC(C)[C@H]1O[C@]2(C=C[C@@H]1C)C[C@@H]1C[C@@H](C/C=C(\C)[C@@H](O[C@H]3C[C@H](OC)[C@@H](O[C@H]4C[C@H](OC)[C@@](O)(CNCC5CCCCC5)[C@H](C)O4)[C@H](C)O3)[C@@H](C)/C=C/C=C3\CO[C@@H]4[C@H](O)C(C)=C[C@@H](C(=O)O1)[C@]34O)O2` (some centres not stated) came in with an ED85 of 0.25 mg/kg. Further, the half-maximal inhibitory concentration (IC50) in the experiment with Caenorhabditis elegans (setting [3]) amounted to 0.13 ng/mL (≈ 0.13 nM). In addition, the IC100 in the experiment on Artemia salina came out at 55500 ng/mL.

For the compound `CCOC(CNC[C@@]1(O)[C@H](C)O[C@@H](O[C@H]2[C@H](C)O[C@@H](O[C@@H]3/C(C)=C/C[C@@H]4C[C@@H](C[C@]5(C=C[C@H](C)[C@@H](C(C)CC)O5)O4)OC(=O)[C@@H]4C=C(C)[C@@H](O)[C@H]5OC/C(=C\C=C\[C@@H]3C)[C@]54O)C[C@@H]2OC)C[C@@H]1OC)OCC` (some centres not stated), in the experiment with Gerbillinae [1], the ED85 is 0.125 mg/kg. For the same compound, in the experiment on Caenorhabditis elegans (setting [3]), the IC50 was found to be 0.15 ng/mL (≈ 0.147 nM). The compound further yielded an IC100 in the experiment on Artemia salina of 13900 ng/mL.

Compound `CCC(C)[C@H]1O[C@]2(C=C[C@@H]1C)C[C@@H]1C[C@@H](C/C=C(\C)[C@@H](O[C@H]3C[C@H](OC)[C@@H](O[C@H]4C[C@H](OC)[C@@](O)(CSC5CCCCC5)[C@H](C)O4)[C@H](C)O3)[C@@H](C)/C=C/C=C3\CO[C@@H]4[C@H](O)C(C)=C[C@@H](C(=O)O1)[C@]34O)O2` (some centres not stated) returned an ED85 with Gerbillinae [1] of 0.25 mg/kg. Further, in the experiment on Caenorhabditis elegans (setting [3]), the IC50 is 1.28 ng/mL (≈ 1.28 nM). In the experiment with Artemia salina, this compound yielded an IC100 of 6930 ng/mL.

Take IVERMECTIN [listing 1 of 2 here]: the ED85 with Gerbillinae [1] is 0.063 mg/kg. In the experiment with Artemia salina, the IC100 was 430 ng/mL.

IVERMECTIN [listing 2 of 2 here] returned a 50% inhibitory concentration (IC50) at Caenorhabditis elegans of 0.2 ng/mL.

Regarding `CCC(C)[C@H]1O[C@]2(C=C[C@@H]1C)C[C@@H]1C[C@@H](C/C=C(\C)[C@@H](O[C@H]3C[C@H](OC)[C@@H](O[C@H]4C[C@H](OC)C(O)(CC#N)C[C@H](C)O4)[C@H](C)O3)[C@@H](C)/C=C/C=C3\CO[C@@H]4[C@H](O)C(C)=C[C@@H](C(=O)O1)[C@]34O)O2` (some centres not stated), the ED85 in the experiment on Gerbillinae [2] came to 0.031 mg/kg. Also, the half-inhibitory concentration (IC50) with Caenorhabditis elegans (setting [3]) is 0.7 ng/mL (≈ 0.756 nM). The IC100 in the experiment on Artemia salina was 870 ng/mL.

For `CCC(C)[C@H]1O[C@]2(C=C[C@@H]1C)C[C@@H]1C[C@@H](C/C=C(\C)[C@@H](O[C@H]3C[C@H](OC)[C@@H](O[C@H]4C[C@H](OC)[C@@](O)(CSc5ncc[nH]5)[C@H](C)O4)[C@H](C)O3)[C@@H](C)/C=C/C=C3\CO[C@@H]4[C@H](O)C(C)=C[C@@H](C(=O)O1)[C@]34O)O2` (some centres not stated), the ED85 with Gerbillinae [1] was determined as 0.031 mg/kg. Further, the IC50 in the experiment on Caenorhabditis elegans (setting [3]) was 0.13 ng/mL (≈ 0.132 nM). Also, in the experiment on Artemia salina, the IC100 was determined as 430 ng/mL.

The values are drawn from ChEMBL document CHEMBL1151081, “Synthesis of avermectin B1-4,4a-oxide: a precursor of potent anthelmintic agents” (Bioorg Med Chem Lett, 1992).
